Data set [1] has as its target T1, NPR-A signaling in HeLa cells (Homo sapiens, UniProt P16066).
T1 construct: Cyclic GMP (cGMP) elevation in HeLa cells in response to Natriuretic Peptide stimulation; endogenous in cells; host or cells: HeLa cells
T1 sequence (P16066 33-1061): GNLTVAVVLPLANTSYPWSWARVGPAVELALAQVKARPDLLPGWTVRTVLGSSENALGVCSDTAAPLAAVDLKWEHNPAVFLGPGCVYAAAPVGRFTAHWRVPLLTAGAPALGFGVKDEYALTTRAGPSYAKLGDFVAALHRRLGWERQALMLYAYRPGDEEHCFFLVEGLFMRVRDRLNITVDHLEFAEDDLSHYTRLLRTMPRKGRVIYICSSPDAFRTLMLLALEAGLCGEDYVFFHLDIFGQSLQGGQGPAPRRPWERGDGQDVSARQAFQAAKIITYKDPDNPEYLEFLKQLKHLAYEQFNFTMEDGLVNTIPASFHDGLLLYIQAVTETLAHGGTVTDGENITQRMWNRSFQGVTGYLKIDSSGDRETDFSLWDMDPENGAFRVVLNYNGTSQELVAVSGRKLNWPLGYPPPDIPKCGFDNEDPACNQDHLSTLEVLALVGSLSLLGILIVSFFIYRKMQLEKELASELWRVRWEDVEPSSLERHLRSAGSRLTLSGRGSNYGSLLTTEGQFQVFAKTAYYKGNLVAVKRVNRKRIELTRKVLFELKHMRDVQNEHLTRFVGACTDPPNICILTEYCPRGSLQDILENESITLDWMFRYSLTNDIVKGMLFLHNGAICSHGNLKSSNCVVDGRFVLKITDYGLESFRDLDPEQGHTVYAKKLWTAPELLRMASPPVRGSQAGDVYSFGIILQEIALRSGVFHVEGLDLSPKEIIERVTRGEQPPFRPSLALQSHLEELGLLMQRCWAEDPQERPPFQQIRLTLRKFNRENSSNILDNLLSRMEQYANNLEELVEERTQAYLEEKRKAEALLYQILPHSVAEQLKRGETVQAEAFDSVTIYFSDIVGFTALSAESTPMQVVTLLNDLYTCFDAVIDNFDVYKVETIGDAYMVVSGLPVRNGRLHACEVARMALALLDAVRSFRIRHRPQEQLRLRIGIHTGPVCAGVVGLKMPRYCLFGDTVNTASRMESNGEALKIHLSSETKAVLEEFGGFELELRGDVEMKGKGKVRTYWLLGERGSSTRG
The data set can be described thus: cGMP AlphaScreen assay in HeLa cells (Examples 14, 15). It is filed as cell-based. The settings on record: 30 minutes at 37° C. The essentials:
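HeLa cells (30 000 per well) in HBSS with 0.1% BSA and 1 mM IBMX were stimulated with increasing peptide concentrations for 30 min at 37 °C. After lysis, cGMP was quantified by AlphaScreen competition with biotinylated cGMP (overnight, room temperature) against a cGMP standard curve.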
A general note: Alpha assays give light when donor and acceptor beads are brought close together.

Data set [2] can be described thus: Stability assay in human plasma (Example 6). In kind it is in vitro ADME. To be noted: 24 h at 37° C., read-out: peptide remaining in plasma. How it is done: Plasma preparation: Blood samples (from healthy human volunteers) were drawn into a sealed tube containing ethylene diamine tetra-acetic acid (EDTA). After sampling, the plasma was separated by centrifugation at 14,000 rpm for 30 min. Plasma was taken out and stored in separated Eppendorf tubes at −20° C.
Stability assay in human and rat plasma: Human or rat plasma (sample size 200 μL) was incubated at 37° C. for 5 min. 50 μL peptide stock solution (5 mg/mL) was added to the plasma. The vortexed reaction mixture was incubated at 37° C. Sample aliquots of 30 μL were taken from the reaction mixture at sequential intervals of 0 h, 1 h, 2 h, 4 h and 24 h and the sample reaction quenched immediately with 30 μL extraction buffer containing 50% Acetonitrile, 50% 0.1 M NaCl and 1% TFA. The quenched aliquots were cooled in ice for 5 min prior to centrifugation at 14,000 rpm for 15 min. 20 μl of the supernatant from each of the centrifuged aliquots was injected into RP-HPLC for analysis.

Where [3] appears, read: −Log10EC50 (pEC50) ± Standard Error, cGMP accumulation in HeLa cells.

Positions of bridges follow the written chain, without caps; N, C: chain ends. Residues, ends and D or L forms follow the SMILES beside them.

The EC50 is the midpoint of the concentration-response curve. In general, share remaining refers to what is left of the initial amount, in per cent.

For `CC[C@H](C)[C@@H]1NC(=O)[C@H](CCCCN)NC(=O)[C@H](Cc2c[nH]cn2)NC(=O)CNC(=O)[C@H](Cc2ccccc2)NC(=O)[C@@H](NC(=O)[C@@H]2CCCN2C(=O)[C@H](CC(=O)O)NC(=O)[C@H](Cc2ccc(O)cc2)NC(=O)[C@H](CCCCN)NC(=O)[C@@H](NC(=O)[C@@H](N)CCC(=O)O)C(C)C)CSSC[C@@H](C(=O)N2CCC[C@H]2C(=O)N[C@@H](CO)C(=O)N[C@@H](CC(C)C)C(=O)N[C@@H](CCCNC(=N)N)C(=O)N[C@@H](CC(=O)O)C(=O)N2CCC[C@H]2C(=O)N[C@@H](CCCNC(=N)N)C(=O)N2CCC[C@H]2C(=O)N[C@@H](CC(N)=O)C(=O)N[C@@H](C)C(=O)N2CCC[C@H]2C(=O)N[C@@H](CO)C(=O)N[C@H](C(=O)N[C@@H](CO)C(=O)N[C@@H](C)C(=O)O)[C@@H](C)O)NC(=O)CNC(=O)[C@H](CC(C)C)NC(=O)[C@H](CC(N)=O)NC(=O)[C@H](CO)NC(=O)[C@H](C(C)C)NC(=O)[C@H](Cc2c[nH]cn2)NC(=O)[C@H](CC(N)=O)NC(=O)[C@H]([C@@H](C)CC)NC(=O)[C@H](CCCNC(=N)N)NC(=O)[C@H](CC(=O)O)NC1=O` [DNP, reference compound] (H-EVKYDPCFGHKIDRINHVSNLGCPSLRDPRPNAPSTSA-OH; disulfide 7-23; N-terminus and C-terminus assumed), the EC50 in data set [1] (EC50, cGMP accumulation in HeLa cells) was 0.392 nM; in data set [1] (setting [3]) it was 0.382 nM.
In turn, `CC[C@H](C)[C@H](NC(=O)[C@H](CCCCN)NC(=O)[C@H](CO)NC(=O)[C@H](CC(=O)O)NC(=O)[C@@H](N)CO)C(=O)NCC(=O)N[C@@H](CC(N)=O)C(=O)NCC(=O)N[C@H]1CSSC[C@@H](C(=O)N[C@@H](CC(N)=O)C(=O)N[C@@H](CCCNC(=N)N)C(=O)N[C@H](C(=O)N[C@@H](CCSC)C(=O)N[C@@H](CCC(N)=O)C(=O)N[C@@H](CC(N)=O)C(=O)N2CCC[C@H]2C(=O)N2CCC[C@H]2C(=O)N[C@@H](CCCCN)C(=O)N[C@@H](CCCCN)C(=O)N[C@@H](Cc2ccccc2)C(=O)N[C@@H](CO)C(=O)NCC(=O)N[C@@H](CCC(=O)O)C(=O)O)[C@@H](C)CC)NC(=O)CNC(=O)[C@H](CC(C)C)NC(=O)CNC(=O)[C@H](CO)NC(=O)[C@H](C(C)C)NC(=O)[C@H](CO)NC(=O)CNC(=O)[C@H]([C@@H](C)CC)NC(=O)[C@H](CCCNC(=N)N)NC(=O)[C@H](CC(=O)O)NC(=O)[C@H](CC(C)C)NC(=O)[C@@H]2CCCN2C(=O)[C@H](Cc2ccccc2)NC(=O)CNC(=O)[C@H](Cc2ccccc2)NC1=O` [TNPc] (H-SDSKIGNGCFGFPLDRIGSVSGLGCNRIMQNPPKKFSGE-OH; disulfide 9-25) showed a 50% effective concentration (EC50) in data set [1] (setting [3]) of 124000 nM. The amount remaining at 24 h, 1 mg/mL in data set [2] was 72%.

For the origin of these results see patent US8058242B2, “Chimeric proteins with natriuretic activity” (The University of Queensland, priority 2004, dated 2011).
